Measured values as given in paper PMC5823406, “Vehicle development, pharmacokinetics and toxicity of the anti-invasive agent 4-fluoro-3’,4’,5’-trimethoxychalcone in rodents” (PLoS ONE, 2018).
Marks after values point to notes of the source that are not given here.

Tested on: CD-1 mice
Assay: 7-Day repeat-dose toxicity study (medicated gel)
Format: in vivo, mouse
Settings: for Organ weight: Kidneys / Organ weight: Liver / Organ weight: Spleen: Average±SD; for Hyperactivity and increased anxiety on opening of the cages: from day 2 on
Procedure: Fifteen 7-week old male CD-1 mice, weighing 27 to 34 g, were obtained from Janvier, France. Animals were randomly allocated to one of four cohorts (N = 4 for the 0 mg/kg, 100 mg/kg and 300 mg/kg C16 cohorts, N = 3 for the water control group). Animals were healthy at the start of the trial. Each cohort was housed in one conventional cage with wood chip bedding and kept in a room with a well-controlled temperature (20–24°C) and humidity with 12-h light/dark cycles. Duration of acclimation was five days, during which all animals had ad libitum access to feed and tap water. Feed was obtained from Carfil, Belgium (Complete feed for rats and mice, article n° 10783915). Animals were ear-marked under isoflurane anesthesia (induction 5%, maintenance 2.5%, oxygen 1 L/min) on day -3 of the study. The study was not blinded.
On the morning of day -2 of the study, tap water access was removed from the 0 mg/kg, 100 mg/kg and 300 mg/kg C16 cohorts. These groups were granted access to two non-medicated cups of Medigel sucralose (one in a tailor-made plastic holder with magnetic fixation system to the side of the cage, one in a cardboard holder on top of the bedding material) for an acclimatization period of three days. Note: the magnetic fixation system is preferable, as animals tear and consume the cardboard holders.
Medicated gels were prepared in order to provide animals with a PO C16 dose equaling oral gavage dosing at 0, 100 and 300 mg/kg three times per day (0, 78.43 and 235.29 mg C16 per cup, respectively, assuming a consumption of 7 mL of gel per day and an average animal weight of 30 g). On the morning of day 0 of the study, treatment with two medicated gels was started and maintained up to the morning of day 7 (i.e. a 7-day treatment). Fresh cups were prepared and provided every day. Meanwhile, the water control group was continuously granted unlimited access to tap water. Throughout the study, all animals had ad libitum access to feed, except for the water control group, which was fasted on the evening of day 6, i.e. twelve hours prior to the single PO test article administration. Animal weight, feed and water/gel consumption and the presence of toxic symptoms and autonomic effects were monitored on a daily basis for all cohorts.
On the evening of day 6, blood was collected via the tail vein for the 0, 100 and 300 mg/kg C16 cohorts for determination of the whole blood C16 level. On the morning of day 7, mice of the 0, 100 and 300 mg/kg C16 cohorts were anesthetized by IP injection with 250 mg/kg of Avertin (20 mL/kg, preparation see Section E in S1 File). Blood for C16 determination and hematological and biochemical analysis was collected via cardiac exsanguination (600 μL to 1 mL). Detailed analysis protocols are described below. Afterward, animals were sacrificed by cervical dislocation.
All animals were necropsied and assessed for gross pathology. Liver, kidneys and spleen weights were recorded, and fragments of these organs were fixed in a 4% formaldehyde solution and processed for microscopic evaluation.
Cardiac puncture as described above afforded 0.6–1 mL of blood. Approximately 500 μL thereof was collected in a Greiner Bio 0.5 mL ethylenediaminetetraacetic acid (EDTA) Eppendorf tube for hematological parameter determination and kept at room temperature. The remaining volume was collected in a regular Eppendorf tube and allowed to clot completely at room temperature over 45 min. The tubes were centrifuged at 1,900 x g (3000 rpm) and 4 °C for 10 min using a swinging bucket rotor. The upper serum phase was transferred to a new tube with conical bottom. Care was taken not to disturb the intermediate buffy coat layer. The serum samples were centrifuged at 16,000 x g and 4 °C for 10 min in a fixed-angle rotor. The cleared supernatant was transferred to a new tube without disturbing the pellet, affording 200–500 μL of serum. Samples were diluted to 500 μL with normal saline, flash frozen in liquid N2 and stored at -80 °C prior to analysis. […]

[1] = 100 mg/kg cohort, 7-day PO via medicated gels, average±SD
[2] = 300 mg/kg cohort, 7-day PO via medicated gels
[3] = 300 mg/kg cohort, 7-day PO via medicated gels, average±SD

COc1cc(C(=O)/C=C/c2ccc(F)cc2)cc(OC)c1OC [C16, 4-fluoro-3’,4’,5’-trimethoxychalcone]
ALP [1]: 118±33 IU/L | ALT [1]: 70±40 IU/L | AST [1]: 345±365 IU/L | BASO [1]: 0.2±0.2% | CHO [1]: 96 ± 21 mg/dL | EO [1]: 0±0% | GLUC [1]: 218 ± 30 mg/dL | HCT [1]: 44.5±5.2% | HGB [1]: 12.2 ± 0.2 g/dL | IG [1]: 0.04±0.06 10^3/μL | LYMP [1]: 79.2±3.4% | MCH [1]: 14.7 ± 1.5 pg | MCV [1]: 53.4 ± 1.8 fL | MONO [1]: 2.5±0.6% | NEUT [1]: 16.9±4.9% | NRBC [1]: 0.75±1.06 10^3/μL | PLT [1]: 281±33 10^3/μL | RBC [1]: 8.32±0.69 10^6/μL | TP [1]: 42.0 ± 4.5 g/L | TRIGL [1]: 110 ± 45 mg/dL | WBC [1]: 3.05±0.08 10^3/μL | Organ weight: Kidneys (100 mg/kg cohort): 0.45 ± 0.02 g | Organ weight: Liver (100 mg/kg cohort): 1.67 ± 0.33 g | Organ weight: Spleen (100 mg/kg cohort): 0.16 ± 0.06 g | Daily gel consumption, average (100 mg/kg cohort, Day 1): 14.9 g/animal | Feed consumption, average (100 mg/kg cohort, Day 1): 4.8 g/animal | Animal weight (100 mg/kg cohort, Day 1, Average±SD): 30.0 ± 1.7 g | Daily gel consumption, average (100 mg/kg cohort, Day 2): 12.3 g/animal | Feed consumption, average (100 mg/kg cohort, Day 2): 5.4 g/animal | Animal weight (100 mg/kg cohort, Day 2, Average±SD): 30.6 ± 1.6 g | Daily gel consumption, average (100 mg/kg cohort, Day 3): 11.2 g/animal | Feed consumption, average (100 mg/kg cohort, Day 3): 6.1 g/animal | Animal weight (100 mg/kg cohort, Day 3, Average±SD): 31.2 ± 2.0 g | Daily gel consumption, average (100 mg/kg cohort, Day 4): 15.1 g/animal | Feed consumption, average (100 mg/kg cohort, Day 4): 6.9 g/animal | Animal weight (100 mg/kg cohort, Day 4, Average±SD): 32.0 ± 2.1 g | Daily gel consumption, average (100 mg/kg cohort, Day 5): 18.1 g/animal | Feed consumption, average (100 mg/kg cohort, Day 5): 5.9 g/animal | Animal weight (100 mg/kg cohort, Day 5, Average±SD): 32.4 ± 2.0 g | Daily gel consumption, average (100 mg/kg cohort, Day 6): 13.1 g/animal | Feed consumption, average (100 mg/kg cohort, Day 6): 5.6 g/animal | Animal weight (100 mg/kg cohort, Day 6, Average±SD): 32.1 ± 2.0 g | Daily gel consumption, average (100 mg/kg cohort, Day 7): 11.8 g/animal | Feed consumption, average (100 mg/kg cohort, Day 7): 5.6 g/animal | Animal weight (100 mg/kg cohort, Day 7, Average±SD): 32.7 ± 2.2 g | Hyperactivity and increased anxiety on opening of the cages (100 mg/kg cohort): slightly noticeable | IG [2]: 0 10^3/μL | LYMP [2]: 60.1% | NEUT [2]: 39.9% | ALP [3]: 94±18 IU/L | ALT [3]: 43±9 IU/L | AST [3]: 221±65 IU/L | BASO [3]: 0±0% | CHO [3]: 73 ± 18 mg/dL | EO [3]: 0±0% | GLUC [3]: 206±24 ^a mg/dL | HCT [3]: 34.0±7.78% | HGB [3]: 10.1 ± 2.9 g/dL | MCH [3]: 16.0 ± 0.2 pg | MCV [3]: 54.5 ± 4.24 fL | MONO [3]: 2.6±3.7% | NRBC [3]: 0.35±0.49 10^3/μL | RBC [3]: 6.32±1.92 10^6/μL | TP [3]: 31.6 ± 21.3 g/L | TRIGL [3]: 123 ± 55 mg/dL | WBC [3]: 2.97±0.94 10^3/μL | Organ weight: Liver (300 mg/kg cohort): 1.70 ± 0.19 g | Organ weight: Spleen (300 mg/kg cohort): 0.15 ± 0.04 g | Organ weight: Kidneys (300 mg/kg cohort, p 0.001): 0.39 ± 0.02 g | Daily gel consumption, average (300 mg/kg cohort, Day 1): 15.2 g/animal | Feed consumption, average (300 mg/kg cohort, Day 1): 6.0 g/animal | Animal weight (300 mg/kg cohort, Day 1, Average±SD): 28.6 ± 0.6 g | Daily gel consumption, average (300 mg/kg cohort, Day 2): 12.6 g/animal | Feed consumption, average (300 mg/kg cohort, Day 2): 6.3 g/animal | Animal weight (300 mg/kg cohort, Day 2, Average±SD): 29.8 ± 0.7 g | Daily gel consumption, average (300 mg/kg cohort, Day 3): 14.7 g/animal | Feed consumption, average (300 mg/kg cohort, Day 3): 8.4 g/animal | Animal weight (300 mg/kg cohort, Day 3, Average±SD): 29.6 ± 0.8 g | Daily gel consumption, average (300 mg/kg cohort, Day 4): 12.9 g/animal | Feed consumption, average (300 mg/kg cohort, Day 4): 6.6 g/animal | Animal weight (300 mg/kg cohort, Day 4, Average±SD): 30.5 ± 1.4 g | Daily gel consumption, average (300 mg/kg cohort, Day 5): 15.4 g/animal | Feed consumption, average (300 mg/kg cohort, Day 5): 6.1 g/animal | Animal weight (300 mg/kg cohort, Day 5, Average±SD): 30.7 ± 1.6 g | Daily gel consumption, average (300 mg/kg cohort, Day 6): 13.6 g/animal | Feed consumption, average (300 mg/kg cohort, Day 6): 7.1 g/animal | Animal weight (300 mg/kg cohort, Day 6, Average±SD): 31.1 ± 1.8 g | Daily gel consumption, average (300 mg/kg cohort, Day 7): 12.9 g/animal | Feed consumption, average (300 mg/kg cohort, Day 7): 6.2 g/animal | Animal weight (300 mg/kg cohort, Day 7, Average±SD): 31.3 ± 1.2 g | Hyperactivity and increased anxiety on opening of the cages (300 mg/kg cohort): noticeable | Kidney weight versus 100 mg/kg and 0 mg/kg cohort (300 mg/kg cohort, p = 0.001): slight but significant decrease | Gross lesions on detailed necropsy (medicated gel, 7 days): No gross lesions | Histology of the kidney and spleen (medicated gel, 7 days): no abnormalities
